In US20220175682A1, “Siremadlin Succinate” (Novartis AG, priority 2019, published 2022):

What was measured:
Assay type in all cases: physicochemical
[1] = Particle size distribution by laser light diffraction (LLD); conditions: laser light diffraction, pin-milled HDM201-BBA batches
Source text: Values are given in micrometer, measurements done by laser light diffraction (LLD).

[2] = FT4 powder rheometer powder characterization (8-parameter model); design: MPS-15: unit not given here; conditions: for SI / sBFE / CBD-15 / FF-15 / MPS-15 / CPS / WFA: HDM201-BBA batches; for CBD-15 / FF-15 / MPS-15: FT4, Group 2; for CPS: FT4, Group 3; for WFA: FT4, Group 4
Description: A standard FT4 powder rheometer offers at least 6 powder characterization methods (per measurement cylinder diameter). Those selected for analysis are
25 mm_1C_Split_Rep+VFR_R01;
25 mm_Compressibility_1-15 kPa;
25 mm_Wall Friction_30 kPa.
Each characterization method produces several kind of response parameters (default or manually selectable). A set of complete powder characterizations (at least 22 response parameters per row) were measured for more than 350 different powders and more than 60 different compounds using a standard FT4 powder rheometer and compiled in a database. The various parameters were correlated to the respective filling behavior in order to determine a set of parameters and parameter ranges which is capable of distinguishing and predicting filling behavior of powders.
sBFE: Specific Basic Flow Energy (mJ/g): obtained from BFE (obtained from standard FT4 test platform) divided by the split mass of the sample.
SI: Stability Index, standard variable, dimensionless.
SE: Specific Energy (mJ/g), standard variable
MPS @ 15 kPa: major Principal Stress, standard variable
FF @ 15 kPa: Flow function (dimensionless), from shear cell, standard variable
CBD @ 15 kPa: Consolidated Bulk Density (g/mL), standard variable (from shear cell)
CPS: Compressibility (%), standard variable
WFA: Wall Friction Angle (degree°), standard variable.

[3] = Crystal/particle shape, size and bulk density of reference API powders
Source text: NBU928 is a fumarate salt with a challenging crystallization process. The resulting particles typically have an elongated aspect ratio, crystals are lath shaped up to 400 μm long with strong agglomeration tendency. Such kind of crystal shape give a resulting powder bulk which is not directly processable in any capsule filler equipment. Therefore the API powder was subjected to a Particle Engineering treatment to selectively grow the shot side of the crystal then it was milled down through a pin mill equipment obtaining a quite regular fragmentation, leading to smaller particles with more steady aspect ratio, free of agglomeration, with an average diameter (X50) of about 25 μm.
CDZ173 is a mono-phosphate salt compound. It is characterized by needle shaped crystals with aspect ratio >10, agglomerated/fused rod-like crystals, very low bulk density (always <0.2 g/mL, very often <0.12 g/mL). It is here reported in two different variants (milled and un-milled).

`COc1ncc(-c2nc3c(n2C(C)C)[C@H](c2ccc(Cl)cc2)N(c2cc(Cl)cn(C)c2=O)C3=O)c(OC)n1.O=C(O)CCC(=O)O` [Batch B1] gave an X10 ([1]; listed as B1) of 3 micrometer, an X50 ([1]; listed as B1) of 16 micrometer and an X90 ([1]; listed as B1) of 50 micrometer. For the same molecule, the SI ([2]; FT4, Group 1, listed as B1) was 1.14, the sBFE ([2]; FT4, Group 1, listed as B1) was 6 mJ/g and the CBD-15 ([2]; listed as B1) was 0.64 g/mL. The FF-15 ([2]; listed as B1) was 3.8, the MPS-15 ([2]; listed as B1) was 29 and the CPS ([2]; listed as B1) was 31%. The WFA ([2]; listed as B1) was 34 °.
In the case of `CCC(=O)N1CC[C@H](Nc2ncnc3c2CN(c2cnc(OC)c(C(F)(F)F)c2)CC3)C1.O=P(O)(O)O` [CDZ173], the bulk density ([3]; always) is reported as under 0.2 g/mL, the “aspect ratio of crystals” value ([3]; needle shaped crystals) is reported as over 10 and the bulk density ([3]; very often) is reported as under 0.12 g/mL.
For `COc1ncc(-c2nc3c(n2C(C)C)[C@H](c2ccc(Cl)cc2)N(c2cc(Cl)cn(C)c2=O)C3=O)c(OC)n1.O=C(O)CCC(=O)O` [Batch C2], the X10 ([1]; listed as C2) was 6 micrometer, the X50 ([1]; listed as C2) was 35 micrometer and the X90 ([1]; listed as C2) was 83 micrometer. The SI ([2]; FT4, Group 1, listed as C2) was 1.01, the sBFE ([2]; FT4, Group 1, listed as C2) was 12 mJ/g and the CBD-15 ([2]; listed as C2) was 0.70 g/mL. It also gave an FF-15 ([2]; listed as C2) of 6.4, an MPS-15 ([2]; listed as C2) of 29 and a CPS ([2]; listed as C2) of 25%. It also gave a WFA ([2]; listed as C2) of 35 °.
With `COc1ncc(-c2nc3c(n2C(C)C)[C@H](c2ccc(Cl)cc2)N(c2cc(Cl)cn(C)c2=O)C3=O)c(OC)n1.O=C(O)CCC(=O)O` [Batch B2] the X10 ([1]; listed as B2) was 4 micrometer, the X50 ([1]; listed as B2) was 21 micrometer and the X90 ([1]; listed as B2) was 71 micrometer. It also gave an SI ([2]; FT4, Group 1, listed as B2) of 1.01, a sBFE ([2]; FT4, Group 1, listed as B2) of 8 mJ/g and a CBD-15 ([2]; listed as B2) of 0.65 g/mL. The FF-15 ([2]; listed as B2) was 3.8, the MPS-15 ([2]; listed as B2) was 28 and the CPS ([2]; listed as B2) was 38%. For the same molecule, the WFA ([2]; listed as B2) was 35 °.
`COc1ncc(-c2nc3c(n2C(C)C)[C@H](c2ccc(Cl)cc2)N(c2cc(Cl)cn(C)c2=O)C3=O)c(OC)n1.O=C(O)CCC(=O)O` [Batch A2] gave an X10 ([1]; listed as A2) of 4 micrometer, an X50 ([1]; listed as A2) of 28 micrometer and an X90 ([1]; listed as A2) of 60 micrometer. The SI ([2]; FT4, Group 1, listed as A2) was 1.11, the sBFE ([2]; FT4, Group 1, listed as A2) was 9 mJ/g and the CBD-15 ([2]; listed as A2) was 0.68 g/mL. For the same molecule, the FF-15 ([2]; listed as A2) was 5.5, the MPS-15 ([2]; listed as A2) was 29 and the CPS ([2]; listed as A2) was 32%. It also gave a WFA ([2]; listed as A2) of 34 °.
Work on `COc1ncc(-c2nc3c(n2C(C)C)[C@H](c2ccc(Cl)cc2)N(c2cc(Cl)cn(C)c2=O)C3=O)c(OC)n1.O=C(O)CCC(=O)O` [Batch A3] yielded an X10 ([1]; listed as A3) of 9 micrometer, an X50 ([1]; listed as A3) of 45 micrometer and an X90 ([1]; listed as A3) of 95 micrometer. For the same molecule, the SI ([2]; FT4, Group 1, listed as A3) was 1.12, the sBFE ([2]; FT4, Group 1, listed as A3) was 20 mJ/g and the CBD-15 ([2]; listed as A3) was 0.69 g/mL. It also gave an FF-15 ([2]; listed as A3) of 9.4, an MPS-15 ([2]; listed as A3) of 29 and a CPS ([2]; listed as A3) of 15%. The WFA ([2]; listed as A3) was 34 °.
In the case of `CCC(=O)N1CC[C@H](Nc2ncnc3c2CN(c2cnc(OC)c(C(F)(F)F)c2)CC3)C1` [6. CDZ173, reference compound], the “sBFE (Specific Basic Flow Energy)” value ([2]; FT4, Group 1, 25 mm_1C_Split_Rep+VFR_R01, reference powders) is reported as 29 mJ/g, the “SI (Stability Index)” value ([2]; FT4, Group 1, dimensionless, reference powders) is reported as 1.5 and the MPS-15 (major Principal Stress @ 15 kPa) ([2]; FT4, Group 2, 25 mm_Shear_15 kPa, reference powders) is reported as 50 kPa. The “FF-15 (Flow function @ 15 kPa)” value ([2]; FT4, Group 2, shear cell, dimensionless, reference powders) was 1.4, the “CBD-15 (Consolidated Bulk Density @ 15 kPa)” value ([2]; FT4, Group 2, shear cell, reference powders) was 0.26 g/mL and the “CPS (Compressibility)” value ([2]; FT4, Group 3, 25 mm_Compressibility_1-15 kPa, reference powders) was 43%. The “WFA (Wall Friction Angle)” value ([2]; FT4, Group 4, 25 mm_Wall Friction_30 kPa, reference powders) was 50 °.
